“And” between values parts separate entries of the source, which are not always exact repeats. Equal values may be shown once.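 48-hour exposure; five concentrations; linearly interpolated endpoints. At the GI50, growth is halved. TGI: total growth inhibition.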
What was measured:
Experiment in all cases: NCI tumour cell line growth inhibition, 48 h
[1] = system: SNB-78 CNS
[2] = system: DLD-1 colon
[3] = system: DMS 273 small cell lung
[4] = system: M19-MEL melanoma
[5] = system: LXFL 529 NSCLC
[6] = system: HOP-18 NSCLC
[7] = system: XF 498 CNS
[8] = system: MDA-N
[9] = system: RXF-631 renal
[10] = system: P388/ADR leukemia
[11] = system: P388 leukemia

Row | SMILES | TGI [1] | TGI [2] | TGI [3] | TGI [4] | TGI [5] | TGI [7] | TGI [8] | other results
1 | N[C@@H]1CCCC[C@@H]1N.O=C([O-])CN(CP(=O)([O-])[O-])CP(=O)([O-])[O-].[Pt+2] | > 100 µM | > 100 µM | > 100 µM | > 100 µM | > 100 µM | > 100 µM |  | GI50 [1]: > 100 µM; GI50 [2]: > 100 µM; GI50 [3]: > 100 µM; GI50 [4]: > 100 µM; GI50 [5]: > 100 µM; GI50 [6]: > 100 µM; TGI [6]: > 100 µM; GI50 [7]: > 100 µM
2 | NCCP(=O)(O)O |  |  |  |  |  |  | > 100 µM | 
3 | CCCCN(CCCC)C(=O)C(=O)C(C)C(=O)CC (stereo not drawn) | > 100 µM | > 100 µM | > 100 µM |  | > 100 µM | > 100 µM |  | 
4 | BrC1=CC=C2NCCCCCCN=C3C=CC(Br)=CC=C3NCCCCCCN=C2C=C1 | > 25.5 µM | > 25.5 µM | > 25.5 µM | > 25.5 µM |  |  |  | TGI [9]: > 25.5 µM
5 | C1=C(c2ccccc2)SC=C(c2ccccc2)S1 |  |  |  |  |  |  | 36.5 µM | 
6 | O=c1c2ccccc2nc(-c2ccccc2)n1O |  |  |  |  |  |  | > 100 µM | 
7 | O=C1C(=O)c2ccccc2C(O)=C1CC=C(Cl)Cl | 55.7 µM and 204 µM | 178 µM | 75.8 µM | 25.9 µM and 93.8 µM |  | 49.2 µM and 131 µM | 34.9 µM and 172 µM | GI50 [1]: 11.5 µM; GI50 [2]: 7.21 µM; GI50 [4]: 9.49 µM; TGI [10]: 49.9 µM; TGI [6]: 148 µM; GI50 [7]: 12.8 µM; TGI [11]: 54.9 µM; GI50 [8]: 6.74 µM
8 | CN1CCN(CCNc2ccc(CO)c3sc4ccccc4c(=O)c23)CC1 |  | 53.2 µM | 14.1 µM | 25.7 µM | 22.6 µM |  |  | 
9 | O=C(O)c1cscc1Cc1cccs1 |  |  |  |  |  |  | > 100 µM | 
10 | CC1CCP(=O)(c2ccccc2)CC1 (stereo not drawn) | > 100 µM | > 100 µM | > 100 µM | > 100 µM | > 100 µM | > 100 µM |  | TGI [9]: > 100 µM
11 | COc1cc(Cl)c2c3c(c(C(=O)c4ccccc4)oc13)CCC2 | > 100 µM | > 100 µM | > 100 µM | > 100 µM | > 100 µM | > 100 µM |  | TGI [6]: > 100 µM
12 | CC(O)(CNS(=O)(=O)c1ccccc1)c1ccccc1 (stereo not drawn) |  |  |  |  |  |  | > 100 µM | 
13 | O=[N+]([O-])/C=C\c1c[nH]c2ccc(OCc3ccccc3)cc12 |  |  |  |  |  |  | 5.56 µM | 
14 | COc1ccc(Cl)cc1NC(=O)c1cccc([N+](=O)[O-])c1O | > 100 µM | > 100 µM |  | > 100 µM | > 100 µM |  | > 100 µM | TGI [6]: 8.79 µM

From PubChem BioAssay (NCI)
